The compounds below were run against T1, Glutamate receptor ionotropic, NMDA 2C (Rattus norvegicus, UniProt Q00961) (assay: Ability to displace [3H]- TCP from PCP receptor in tissue homogenate preparation of fresh whole rat brain minus cerebellum.).
Format: tissue-based

T1 sequence (Q00961 whole entry): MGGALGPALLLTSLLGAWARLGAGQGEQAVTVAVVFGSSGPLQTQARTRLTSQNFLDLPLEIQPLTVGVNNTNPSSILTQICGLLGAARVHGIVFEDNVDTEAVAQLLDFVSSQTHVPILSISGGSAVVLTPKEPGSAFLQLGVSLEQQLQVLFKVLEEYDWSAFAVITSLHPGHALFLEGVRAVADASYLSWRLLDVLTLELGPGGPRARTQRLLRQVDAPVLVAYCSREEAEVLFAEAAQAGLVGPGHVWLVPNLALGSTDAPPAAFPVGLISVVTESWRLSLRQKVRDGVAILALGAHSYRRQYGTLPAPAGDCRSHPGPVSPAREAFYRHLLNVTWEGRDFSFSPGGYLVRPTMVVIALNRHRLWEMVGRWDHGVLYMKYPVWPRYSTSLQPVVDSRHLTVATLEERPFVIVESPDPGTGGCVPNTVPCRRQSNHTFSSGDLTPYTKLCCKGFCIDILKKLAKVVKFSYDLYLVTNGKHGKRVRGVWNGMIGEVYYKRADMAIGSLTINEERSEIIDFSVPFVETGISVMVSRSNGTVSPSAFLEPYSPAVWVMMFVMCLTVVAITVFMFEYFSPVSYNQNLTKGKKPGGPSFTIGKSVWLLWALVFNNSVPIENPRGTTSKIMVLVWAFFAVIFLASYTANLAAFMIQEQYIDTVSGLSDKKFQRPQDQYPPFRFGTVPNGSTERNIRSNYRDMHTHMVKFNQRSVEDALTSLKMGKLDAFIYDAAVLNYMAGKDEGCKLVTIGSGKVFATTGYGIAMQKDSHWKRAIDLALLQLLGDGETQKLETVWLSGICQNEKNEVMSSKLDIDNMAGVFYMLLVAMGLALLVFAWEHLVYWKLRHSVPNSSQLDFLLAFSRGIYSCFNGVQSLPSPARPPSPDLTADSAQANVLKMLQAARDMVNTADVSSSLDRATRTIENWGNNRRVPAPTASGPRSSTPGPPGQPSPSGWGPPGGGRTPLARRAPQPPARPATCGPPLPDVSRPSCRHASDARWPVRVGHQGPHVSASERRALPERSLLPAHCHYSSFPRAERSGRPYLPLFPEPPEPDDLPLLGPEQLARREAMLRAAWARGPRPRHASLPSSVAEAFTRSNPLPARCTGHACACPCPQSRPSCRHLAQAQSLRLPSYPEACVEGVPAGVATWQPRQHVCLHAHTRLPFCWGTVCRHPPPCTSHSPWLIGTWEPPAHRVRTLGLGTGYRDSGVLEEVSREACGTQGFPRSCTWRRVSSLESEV

In order of falling Ki:
1. FC(F)(F)c1cccc(C2(N3CC=CCC3)CCCCC2)c1  422 nM
2. O=Cc1cccc(C2(N3CC=CCC3)CCCCC2)c1  324 nM
3. Fc1cccc(C2(N3CC=CCC3)CCCCC2)c1  281 nM
4. CSc1cccc(C2(N3CC=CCC3)CCCCC2)c1  231 nM
5. C=Cc1cccc(C2(N3CC=CCC3)CCCCC2)c1  114 nM
6. COCOc1cccc(C2(N3CC=CCC3)CCCCC2)c1  92 nM
7. Cc1cccc(C2(N3CC=CCC3)CCCCC2)c1  81 nM
8. C1=CCN(C2(c3ccccc3)CCCCC2)CC1  37 nM
9. CC(=O)Oc1cccc(C2(N3CC=CCC3)CCCCC2)c1  6 nM

Each compound was assayed against T1, Glutamate receptor ionotropic, NMDA 2C (assay: Ability to displace [3H]TCP from PCP receptor in tissue homogenate preparation of fresh whole rat brain minus cerebellum.).
Format: tissue-based

In order of rising Ki:
1. Oc1cccc(C2(N3CC=CCC3)CCCCC2)c1  7 nM
2. C1=CCN(C2(c3cccs3)CCCCC2)CC1  12 nM
3. COc1cccc(C2(N3CC=CCC3)CCCCC2)c1  33 nM
4. O/N=C/c1cccc(C2(N3CC=CCC3)CCCCC2)c1  56 nM
5. C1=CCN(C2(c3cccc(C4OCCO4)c3)CCCCC2)CC1  601 nM
6. C1=CCN(C2(c3cccc(OCc4ccccc4)c3)CCCCC2)CC1  733 nM
7. COc1cc(OC)cc(C2(N3CC=CCC3)CCCCC2)c1  8600 nM

Source: ChEMBL document CHEMBL1124878, “Synthesis, phencyclidine-like pharmacology, and antiischemic potential of meta-substituted 1-(1-phenylcyclohexyl)-1,2,3,6-tetrahydropyridines” (J Med Chem, 1990)
